Experiments:
Assay type in all cases: functional, cell-based
[1] = target: T1, ATP-binding cassette sub-family C member 2 (Homo sapiens, UniProt Q92887); assay: TP_TRANSPORTER: inhibition of Vinblastine transepithelial transport (basal to apical) in MRP2-expressing MDCK cells
[2] = target: T1, ATP-binding cassette sub-family C member 2; assay: TP_TRANSPORTER: inhibition of Vinblastine transepithelial transport (basal to apical)(GF120918: 12 uM) in MRP2-expressing MDCK cells
[3] = target: T1, ATP-binding cassette sub-family C member 2; assay: TP_TRANSPORTER: inhibition of Vinblastine transepithelial transport (basal to apical)(Quinidine: 15 uM) in MRP2-expressing MDCK cells

T1 sequence (Q92887 whole entry): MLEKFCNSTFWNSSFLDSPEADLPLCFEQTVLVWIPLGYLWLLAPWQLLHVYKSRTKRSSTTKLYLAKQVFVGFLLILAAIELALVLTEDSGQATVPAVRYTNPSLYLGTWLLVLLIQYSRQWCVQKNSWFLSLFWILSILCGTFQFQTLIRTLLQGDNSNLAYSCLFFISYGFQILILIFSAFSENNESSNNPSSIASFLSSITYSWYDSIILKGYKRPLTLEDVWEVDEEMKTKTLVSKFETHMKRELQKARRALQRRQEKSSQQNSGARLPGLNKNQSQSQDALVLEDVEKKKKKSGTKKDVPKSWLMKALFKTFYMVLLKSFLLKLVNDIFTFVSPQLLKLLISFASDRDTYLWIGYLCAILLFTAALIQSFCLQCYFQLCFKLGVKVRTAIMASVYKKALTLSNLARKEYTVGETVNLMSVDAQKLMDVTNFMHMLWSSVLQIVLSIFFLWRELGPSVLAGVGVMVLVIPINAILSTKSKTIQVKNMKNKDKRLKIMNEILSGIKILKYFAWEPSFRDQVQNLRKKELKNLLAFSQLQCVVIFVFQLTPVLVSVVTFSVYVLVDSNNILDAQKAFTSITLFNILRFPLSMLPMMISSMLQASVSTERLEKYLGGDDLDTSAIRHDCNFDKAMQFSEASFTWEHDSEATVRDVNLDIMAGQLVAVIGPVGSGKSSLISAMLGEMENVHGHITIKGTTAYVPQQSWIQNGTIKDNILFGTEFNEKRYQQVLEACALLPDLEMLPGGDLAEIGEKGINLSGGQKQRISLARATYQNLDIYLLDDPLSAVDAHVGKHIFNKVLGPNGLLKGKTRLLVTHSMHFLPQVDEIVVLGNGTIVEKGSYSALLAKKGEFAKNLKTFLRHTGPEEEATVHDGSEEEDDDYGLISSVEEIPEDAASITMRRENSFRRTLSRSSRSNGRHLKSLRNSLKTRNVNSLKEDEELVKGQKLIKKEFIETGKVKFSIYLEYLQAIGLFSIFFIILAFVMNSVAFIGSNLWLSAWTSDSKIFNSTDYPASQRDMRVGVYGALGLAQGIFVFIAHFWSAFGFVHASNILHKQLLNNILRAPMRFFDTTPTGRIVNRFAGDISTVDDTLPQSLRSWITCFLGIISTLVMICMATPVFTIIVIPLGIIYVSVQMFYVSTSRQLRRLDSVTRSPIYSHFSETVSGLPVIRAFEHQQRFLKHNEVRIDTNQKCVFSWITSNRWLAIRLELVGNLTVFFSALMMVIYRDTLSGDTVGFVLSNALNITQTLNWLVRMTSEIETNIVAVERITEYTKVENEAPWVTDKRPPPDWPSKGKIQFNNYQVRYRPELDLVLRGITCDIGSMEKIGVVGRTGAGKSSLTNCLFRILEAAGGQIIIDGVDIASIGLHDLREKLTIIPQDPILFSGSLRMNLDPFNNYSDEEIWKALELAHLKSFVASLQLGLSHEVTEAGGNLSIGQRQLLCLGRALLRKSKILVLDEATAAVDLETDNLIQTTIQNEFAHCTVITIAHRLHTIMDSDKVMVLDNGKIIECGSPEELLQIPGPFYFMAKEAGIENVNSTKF

## CN(C)C(=O)CCSC(SCCC(=O)O)c1cccc(/C=C/c2ccc3ccc(Cl)cc3n2)c1 (configuration not stated) [MK-571]
[1]
  Ki: 26.4 µM

## COc1cccc2c1C(=O)c1c(O)c3c(c(O)c1C2=O)C[C@@](O)(C(C)=O)C[C@@H]3O[C@H]1C[C@H](N)[C@H](O)[C@H](C)O1 [DAUNORUBICIN]
[1]
  Ki: 49.4 µM

## COC(=O)[C@H]1[C@H]2C[C@@H]3c4[nH]c5cc(OC)ccc5c4CCN3C[C@H]2C[C@@H](OC(=O)c2cc(OC)c(OC)c(OC)c2)[C@@H]1OC [RESERPINE]
[1]
  Ki: 295 µM

## CC[C@]1(O)C[C@H]2CN(CCc3c([nH]c4ccccc34)[C@@](C(=O)OC)(c3cc4c(cc3OC)N(C=O)[C@H]3[C@@](O)(C(=O)OC)[C@H](OC(C)=O)[C@]5(CC)C=CCN6CC[C@]43[C@@H]65)C2)C1 [VINCRISTINE]
[1]
  Ki: 802 µM

## COc1cc([C@@H]2c3cc4c(cc3[C@@H](O[C@@H]3O[C@@H]5CO[C@@H](C)O[C@H]5[C@H](O)[C@H]3O)[C@H]3COC(=O)[C@H]23)OCO4)cc(OC)c1O [ETOPOSIDE]
[1]
  Ki: 756 µM

## COc1cc2c(cc1OC)CN(CCc1ccc(NC(=O)c3cccc4c(=O)c5cccc(OC)c5[nH]c34)cc1)CC2.Cl [ELACRIDAR HYDROCHLORIDE]
[2]
  Ki: is not an inhibitor [Ki=No inhibition]

## C=C[C@H]1CN2CC[C@H]1C[C@@H]2[C@@H](O)c1ccnc2ccc(OC)cc12 [QUINIDINE]
[3]
  Ki: is not an inhibitor [Ki=No inhibition]

Source: ChEMBL document CHEMBL2073914, “Are MDCK cells transfected with the human MRP2 gene a good model of the human intestinal mucosa?” (Pharm Res, 2002)
